Measured values: the NIST ThermoML archive (doi:10.1021/je100484n)
Numbers after ± are expanded uncertainties.

Assay: refractive index (Na D-line) (dimensionless); xn = mol fraction of the nth substance listed
Settings: 101 kPa, Liquid

CC(C)(C)O [2-methylpropan-2-ol] + CCCCCCC
refractive index
Settings | 303.15 K | 308.15 K | 313.15 K | 318.15 K | 323.15 K
x1 = 0.1006 | 1.3814 ± 0.00063 | 1.37865 ± 0.00063 | 1.37591 ± 0.00063 | 1.37312 ± 0.00063 | 1.37031 ± 0.00063
x1 = 0.1502 | 1.38092 ± 0.00063 | 1.37816 ± 0.00063 | 1.37539 ± 0.00063 | 1.37258 ± 0.00063 | 1.36973 ± 0.00063
x1 = 0.2 | 1.38051 ± 0.00063 | 1.37775 ± 0.00063 | 1.37496 ± 0.00063 | 1.37213 ± 0.00063 | 1.36928 ± 0.00063
x1 = 0.3 | 1.37984 ± 0.00063 | 1.37711 ± 0.00063 | 1.37431 ± 0.00063 | 1.37149 ± 0.00063 | 1.36865 ± 0.00063
x1 = 0.4 | 1.37936 ± 0.00063 | 1.37667 ± 0.00063 | 1.37387 ± 0.00063 | 1.37108 ± 0.00063 | 1.36828 ± 0.00063
x1 = 0.4998 | 1.37907 ± 0.00063 | 1.37641 ± 0.00063 | 1.3736 ± 0.00063 | 1.37085 ± 0.00063 | 1.36807 ± 0.00063
x1 = 0.6 | 1.37899 ± 0.00063 | 1.37633 ± 0.00063 | 1.3735 ± 0.00063 | 1.37079 ± 0.00063 | 1.36801 ± 0.00063
x1 = 0.7 | 1.37917 ± 0.00062 | 1.37649 ± 0.00062 | 1.37364 ± 0.00062 | 1.37094 ± 0.00062 | 1.36814 ± 0.00062
x1 = 0.7998 | 1.37969 ± 0.00062 | 1.37697 ± 0.00062 | 1.37411 ± 0.00062 | 1.37139 ± 0.00062 | 1.36855 ± 0.00062
x1 = 0.8479 | 1.38009 ± 0.00062 | 1.37735 ± 0.00062 | 1.37449 ± 0.00062 | 1.37175 ± 0.00062 | 1.36889 ± 0.00062
x1 = 0.8998 | 1.38066 ± 0.00062 | 1.37791 ± 0.00062 | 1.37505 ± 0.00062 | 1.37229 ± 0.00062 | 1.36942 ± 0.00062
x1 = 0.9499 | 1.38136 ± 0.00062 | 1.3786 ± 0.00062 | 1.37577 ± 0.00062 | 1.37297 ± 0.00062 | 1.37009 ± 0.00062
x1 = 1 | 1.38222 ± 0.00062 | 1.37947 ± 0.00062 | 1.37667 ± 0.00062 | 1.37384 ± 0.00062 | 1.37097 ± 0.00062
